The values that follow come from ChEMBL document CHEMBL1201862, “PubChem BioAssay data set” (2004).

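Tested at 5 concentrations; 48 h exposure; 96-well plates; endpoints linearly interpolated, else capped at highest concentration. GI50: concentration for 50% inhibition of growth.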 Activity calls are given as the source filed them. Rule as the data show it: active = GI50 up to about 1.1 µM and inactive = higher. Non-standard residues stand in square brackets, D forms with d. Residues, ends and D or L forms follow the SMILES beside them.

Some test systems named below: MCF7; HOP-92; OVCAR-8; NCI-H23; RXF 393; CAKI-1; RPMI-8226; A549; MOLT-4; SF-539; HCT-15; NCI-H460; OVCAR-4; IGROV-1; HT-29; SN12C; CCRF-CEM; Malme-3M; UACC-257; SF-268.
Common to all, as to experiment: inhibition of tumour cell growth, NCI panel, 48 h

On to `c1csc(C(NC2=NCCO2)C2CC2)c1` (stereo not drawn), for which the GI50 in the experiment with MCF7 was > 100 µM (inactive); in the experiment on HOP-92, 93.5 µM (inactive); in the experiment on OVCAR-8 it was > 100 µM (inactive); with NCI-H23, > 100 µM (inactive); in the experiment with RXF 393, > 100 µM (inactive); with CAKI-1, > 100 µM (inactive). In addition, the GI50 in the experiment with RPMI-8226 is > 100 µM (inactive); with A549, > 100 µM (inactive); in the experiment with MOLT-4, > 100 µM (inactive); in the experiment with SF-539, > 100 µM (inactive); in the experiment with HCT-15, greater than 100 µM; with NCI-H460, > 100 µM (inactive). In addition, the GI50 with OVCAR-4 was > 100 µM (inactive); in the experiment with IGROV-1 it was > 100 µM (inactive); in the experiment on HT-29, 83.9 µM (inactive); in the experiment with SN12C, > 100 µM (inactive).
As for `COc1ccc(N2C(=O)/C(=C\c3ccccc3)SC2c2cc(OC)c(OC)c(OC)c2)cc1` (stereo not drawn), the GI50 in the experiment on MCF7 is 38.4 µM (inactive); in the experiment on HOP-92, > 100 µM (inactive); in the experiment with OVCAR-8, > 100 µM (inactive); with NCI-H23 it was 92.7 µM (inactive); in the experiment with RXF 393 it was 31.3 µM (inactive); in the experiment with CAKI-1, 46.8 µM (inactive). Further, the GI50 with CCRF-CEM was 10.7 µM (inactive); in the experiment with Malme-3M, > 100 µM (inactive); in the experiment on A549, > 100 µM (inactive); in the experiment with MOLT-4, 65.6 µM (inactive); with UACC-257, > 100 µM (inactive); with HCT-15, greater than 100 µM. Besides, the GI50 with OVCAR-4 is 82.4 µM (inactive); in the experiment on SF-268, > 100 µM (inactive); in the experiment with HT-29 it was 96.6 µM (inactive); in the experiment with SN12C, > 100 µM (inactive).
With `CN(C)CCNc1c2ccccc2c2c3c(cccc13)C(=O)N(CCN(C)C)C2=O`, the GI50 in the experiment on MCF7 is 0.0416 µM (active); with HOP-92, 0.138 µM (active); in the experiment on OVCAR-8, 0.129 µM (active); in the experiment on NCI-H23, 0.0904 µM (active); in the experiment on RXF 393, 0.0232 µM (active); with CAKI-1, 0.423 µM (active). In addition, the GI50 in the experiment on RPMI-8226 is 0.288 µM (active); in the experiment with CCRF-CEM, 0.111 µM (active); in the experiment with Malme-3M, 0.348 µM (active); in the experiment on A549, 0.193 µM (active); in the experiment on MOLT-4 it was 0.0625 µM (active); in the experiment on SF-539, 0.374 µM (active). Besides, the GI50 with UACC-257 is 0.49 µM (active); in the experiment with HCT-15, 0.0615 µM; in the experiment on NCI-H460, 0.0448 µM (active); with OVCAR-4, 0.0455 µM (active); with IGROV-1, 0.0968 µM (active); in the experiment with SF-268 it was 0.22 µM (active). The GI50 was 0.029 µM (active) with HT-29 and 0.0883 µM (active) in the experiment with SN12C.
On to `COc1cc2c3c(c4cc(OC)c(OC)cc4c2cc1OC)C(=O)C1CCC(=O)N1C3` (stereo not drawn), for which the GI50 in the experiment on MCF7 was 11.9 µM (inactive); in the experiment with HOP-92, 12 µM (inactive); in the experiment on OVCAR-8 it was 27.2 µM (inactive); in the experiment with NCI-H23, 55 µM (inactive); in the experiment on RXF 393, 14.8 µM (inactive); in the experiment on CAKI-1 it was 8.75 µM (inactive). Also, the GI50 with RPMI-8226 was 2.02 µM (inactive); with CCRF-CEM it was 6.64 µM (inactive); in the experiment on Malme-3M, 8.75 µM (inactive); in the experiment with MOLT-4 it was 3.27 µM (inactive); in the experiment on SF-539, 10.9 µM (inactive); in the experiment with UACC-257, 41.9 µM (inactive). Moreover, the GI50 is 31.6 µM in the experiment with HCT-15; 13.8 µM (inactive) in the experiment with NCI-H460; 12.8 µM (inactive) in the experiment with OVCAR-4; 2.43 µM (inactive) in the experiment on IGROV-1; 22.2 µM (inactive) with SF-268.
In the case of `CC1NC(=O)CC(c2ccccc2)N(N=O)C1c1ccccc1` (stereo not drawn), the GI50 in the experiment on MCF7 is 44.3 µM (inactive); in the experiment with HOP-92, 16.9 µM (inactive); in the experiment with OVCAR-8 it was 34 µM (inactive); in the experiment with NCI-H23 it was 36.2 µM (inactive); in the experiment on RXF 393 it was 22.4 µM (inactive); in the experiment on CAKI-1, 37.1 µM (inactive). The GI50 in the experiment on RPMI-8226 is 26.5 µM (inactive); in the experiment on CCRF-CEM it was 23.8 µM (inactive); in the experiment with Malme-3M it was 52.5 µM (inactive); in the experiment with A549, 53.2 µM (inactive); in the experiment with MOLT-4, 31.4 µM (inactive); in the experiment with SF-539, 23.4 µM (inactive). For the same compound, the GI50 in the experiment with UACC-257 was 55.6 µM (inactive); in the experiment on HCT-15, 39.5 µM; with NCI-H460, 25.8 µM (inactive); with OVCAR-4 it was 19.9 µM (inactive); in the experiment on IGROV-1, 42.1 µM (inactive); in the experiment on SF-268 it was 31.8 µM (inactive). Further, the GI50 in the experiment with HT-29 is 29.7 µM (inactive); in the experiment with SN12C, 49.5 µM (inactive).
Regarding `COc1ccc(/C=N/n2cnc3c(c2=O)S/C(=C2/SC(=S)N(c4ccc(C)cc4)C2=O)N3c2ccccc2)cc1`, the GI50 is 25.8 µM (inactive) in the experiment on HOP-92; 70.5 µM (inactive) in the experiment with OVCAR-8; 17.3 µM (inactive) with RXF 393; > 10 µM (inactive) in the experiment with CAKI-1; 40.8 µM (inactive) in the experiment on RPMI-8226; 43.6 µM (inactive) with CCRF-CEM. For the same compound, the GI50 in the experiment with Malme-3M is 19.7 µM (inactive); in the experiment on A549 it was 41.3 µM (inactive); in the experiment on MOLT-4, > 10 µM (inactive); with SF-539, 30.5 µM (inactive); in the experiment on HCT-15, greater than 100 µM; with NCI-H460, 68.7 µM (inactive). For the same compound, the GI50 in the experiment on OVCAR-4 was 17.7 µM (inactive); in the experiment on IGROV-1 it was 42.7 µM (inactive); with SF-268 it was 29.4 µM (inactive); in the experiment with HT-29 it was > 100 µM (inactive); with SN12C, > 100 µM (inactive).
As for `Oc1ccc(-c2nc3ccc(Br)cc3s2)cc1`, the GI50 is 4.85 µM (inactive) in the experiment with MCF7; 20.4 µM (inactive) in the experiment on OVCAR-8; 22.1 µM (inactive) with NCI-H23; 31.3 µM (inactive) with RXF 393; 15.7 µM (inactive) in the experiment with CAKI-1; 15.1 µM (inactive) in the experiment with RPMI-8226. The GI50 in the experiment on CCRF-CEM was 3.74 µM (inactive); with Malme-3M it was 27 µM (inactive); in the experiment on A549, 21.7 µM (inactive); in the experiment with MOLT-4, 33.3 µM (inactive); in the experiment with SF-539, 14.8 µM (inactive); in the experiment on UACC-257, 21.4 µM (inactive). Also, the GI50 in the experiment on HCT-15 was 20.3 µM; in the experiment with NCI-H460, 21.7 µM (inactive); with IGROV-1 it was 12.9 µM (inactive); with SF-268, 16.3 µM (inactive); with HT-29 it was 18.2 µM (inactive); with SN12C, 18.2 µM (inactive).
Take `CC(C)C[C@H](NC(=O)[C@H](CC(C)C)NC(=O)[C@@H](Cc1c[nH]c2ccccc12)NC(=O)[C@H](Cc1ccccc1)NC(=O)[C@@H](Cc1c[nH]c2ccccc12)NC(=O)[C@H](CCC(N)=O)NC(=O)[C@H](CCC(N)=O)NC(=O)[C@H]1CCCN1C(=O)[C@@H](N)CCCCN)C(N)=O` (H-K[dP]QQ[dW]F[dW]LL-NH2): the GI50 in the experiment with MCF7, in the experiment on HOP-92, in the experiment on OVCAR-8, with NCI-H23, in the experiment with RXF 393 and in the experiment on RPMI-8226 was > 100 µM (inactive) each time. Besides, the GI50 in the experiment with CCRF-CEM, in the experiment on Malme-3M, with A549, in the experiment with MOLT-4, in the experiment with SF-539 and in the experiment with UACC-257 was > 100 µM (inactive) each time. Further, the GI50 is greater than 100 µM in the experiment on HCT-15; > 100 µM (inactive) in the experiment on NCI-H460; > 100 µM (inactive) with OVCAR-4; > 100 µM (inactive) with IGROV-1; > 100 µM (inactive) in the experiment with SF-268; > 100 µM (inactive) in the experiment with HT-29. The GI50 in the experiment with SN12C was > 100 µM (inactive).
